The values below come from the supplement of paper PMC10307832.

Common to all, as to test: relative viability (nuclei count vs DMSO), 5 days (fraction); higher = more cells survive
Compound in assay [1]: Cc1ccc(C(=O)Nc2cccc(C(F)(F)F)c2)cc1Nc1cncc(C(N)=O)c1 [ALW-II-49-7] + Cc1nc(Nc2ncc(C(=O)Nc3c(C)cccc3Cl)s2)cc(N2CCN(CCO)CC2)n1 [Dasatinib] (partner 0.075 µM)
In a few lines:
(§1)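 Relative viability divides the nuclei count in treated wells by that in vehicle wells. Lung cancer cell lines were seeded in 1536-well plates, dosed by pin tool the next day, and fixed and stained after 5 days in one step with final 0.05% Triton X-100, 1% formaldehyde and 1 ug/ml Hoechst. Dosing was a single drug or a fixed anchor-drug dose plus five library-drug doses (not always all listed) in √10 steps, and values are medians of duplicate plates imaged at 4×.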

Compound in assay [2]: Cc1ccc(C(=O)Nc2cccc(C(F)(F)F)c2)cc1Nc1cncc(C(N)=O)c1 [ALW-II-49-7] + CC1(C)CCC(c2ccc(Cl)cc2)=C(CN2CCN(c3ccc(C(=O)NS(=O)(=O)c4ccc(N[C@H](CCN5CCOCC5)CSc5ccccc5)c(S(=O)(=O)C(F)(F)F)c4)cc3)CC2)C1 [Navitoclax] (partner 0.5 µM)
In a few lines:
as §1

Compound in assay [3]: C1CC1C(=O)NC2=NNC3=C2C=CC(=C3)C4=CC(=CC=C4)C(=O)NC5CC5 [XMD13-2] + O=C(c1cc(Cc2n[nH]c(=O)c3ccccc23)ccc1F)N1CCN(C(=O)C2CC2)CC1 [Olaparib] (partner 8 µM)
In a few lines: as §1

Compound in assay [4]: C1CC1C(=O)NC2=NNC3=C2C=CC(=C3)C4=CC(=CC=C4)C(=O)NC5CC5 [XMD13-2] + Nc1nc2[nH]cc(CCc3ccc(C(=O)N[C@@H](CCC(=O)O)C(=O)O)cc3)c2c(=O)[nH]1 [Pemetrexed] (partner 0.2 µM)
In a few lines: as §1

As to ChaGo-K-1, the relative viability in assay [1] (first compound 0.08 µM) is 0.538; in assay [1] (first compound 0.253 µM), 0.668; in assay [1] (first compound 0.8 µM), 0.554; in assay [1] (first compound 2.53 µM), 0.539; in assay [1] (first compound 8 µM), 0.501; in assay [2] (first compound 0.08 µM), 0.931. In addition, the relative viability was 1.45 in assay [2] (first compound 0.253 µM); 1.27 in assay [2] (first compound 0.8 µM); 1.29 in assay [2] (first compound 2.53 µM); 0.753 in assay [2] (first compound 8 µM); 0.439 in assay [3] (first compound 0.05 µM); 0.436 in assay [3] (first compound 0.1581 µM). The relative viability in assay [3] (first compound 0.5 µM) was 0.438; in assay [3] (first compound 1.581 µM), 0.387; in assay [3] (first compound 5 µM), 0.358; in assay [4] (first compound 0.05 µM), 0.255; in assay [4] (first compound 0.1581 µM), 0.267; in assay [4] (first compound 0.5 µM), 0.259. Further, the relative viability in assay [4] (first compound 1.581 µM) was 0.253; in assay [4] (first compound 5 µM), 0.264.

In the case of NCI-H23, the relative viability worked out at 0.84 in assay [1] (first compound 0.08 µM); 0.871 in assay [1] (first compound 0.253 µM); 0.574 in assay [1] (first compound 0.8 µM); 0.706 in assay [1] (first compound 2.53 µM); 0.768 in assay [1] (first compound 8 µM); 0.968 in assay [2] (first compound 0.08 µM). The relative viability turned out to be 0.92 in assay [2] (first compound 0.253 µM); 0.848 in assay [2] (first compound 0.8 µM); 0.766 in assay [2] (first compound 2.53 µM); 0.787 in assay [2] (first compound 8 µM); 0.336 in assay [3] (first compound 0.05 µM); 0.342 in assay [3] (first compound 0.1581 µM). The relative viability in assay [3] (first compound 0.5 µM) stood at 0.365; in assay [3] (first compound 1.581 µM), 0.3; in assay [3] (first compound 5 µM) it was 0.281; in assay [4] (first compound 0.05 µM), 0.829; in assay [4] (first compound 0.1581 µM) it was 0.569; in assay [4] (first compound 0.5 µM), 0.747. In addition, the figures for the relative viability in assay [4] (first compound 1.581 µM) and in assay [4] (first compound 5 µM) were 0.656 and 0.799, respectively.

Consider NCI-H1975, for which the relative viability in assay [1] (first compound 0.08 µM) was 0.298; in assay [1] (first compound 0.253 µM), 0.451; in assay [1] (first compound 0.8 µM), 0.323; in assay [1] (first compound 2.53 µM), 0.349; in assay [1] (first compound 8 µM), 0.34; in assay [2] (first compound 0.08 µM), 1.06. Further, the relative viability was found to be 1.05 in assay [2] (first compound 0.253 µM); 0.993 in assay [2] (first compound 0.8 µM); 0.919 in assay [2] (first compound 2.53 µM); 0.998 in assay [2] (first compound 8 µM); 0.89 in assay [3] (first compound 0.05 µM); 0.798 in assay [3] (first compound 0.1581 µM). The relative viability was determined as 0.828 in assay [3] (first compound 0.5 µM); 0.871 in assay [3] (first compound 1.581 µM); 0.792 in assay [3] (first compound 5 µM); 0.295 in assay [4] (first compound 0.05 µM); 0.286 in assay [4] (first compound 0.1581 µM); 0.295 in assay [4] (first compound 0.5 µM). For the same cell line, the relative viability in assay [4] (first compound 1.581 µM) amounted to 0.316; in assay [4] (first compound 5 µM) it was 0.305.

Consider COR-L 105, for which the relative viability in assay [1] (first compound 0.08 µM) is 0.304; in assay [1] (first compound 0.253 µM) it was 0.308; in assay [1] (first compound 0.8 µM), 0.326; in assay [1] (first compound 2.53 µM) it was 0.272; in assay [1] (first compound 8 µM) it was 0.329; in assay [2] (first compound 0.08 µM) it was 0.812. In addition, the relative viability came to 0.669 in assay [2] (first compound 0.253 µM); 0.767 in assay [2] (first compound 0.8 µM); 0.721 in assay [2] (first compound 2.53 µM); 0.655 in assay [2] (first compound 8 µM); 0.606 in assay [3] (first compound 0.05 µM); 0.678 in assay [3] (first compound 0.1581 µM). Besides, the relative viability in assay [3] (first compound 0.5 µM) is 0.656; in assay [3] (first compound 1.581 µM) it was 0.564; in assay [3] (first compound 5 µM), 0.759; in assay [4] (first compound 0.05 µM), 1.01; in assay [4] (first compound 0.1581 µM), 1.26; in assay [4] (first compound 0.5 µM) it was 1.04. The relative viability in assay [4] (first compound 1.581 µM) is 0.98; in assay [4] (first compound 5 µM) it was 1.26.
